The values below come from US12070483B2, “Compositions and methods for treatment of acute lung injury” (THE TRUSTEES OF THE UNIVERSITY OF PENNSYLVANIA, priority 2018, dated 2024).

In assay [1] the test system is ROS production in lung. Description: Lung ROS production (DFF-DA fluorescence) after IT LPS. It is filed as in vivo, mouse. Conditions: PIP-2 with IT LPS 5 μg/g; 6, 12 and 24 h. Here is the method: (§1) FIGS. 9A and 9B: PIP-2 inhibits the increased lung aiPLA2 activity and increased ROS generation after LPS administration. LPS (5 μg/g body weight) was administered by intratracheal (IT) instillation along with liposomes alone (labeled as LPS) or with PIP-2 in liposomes (labeled as +PIP-2). Control was liposomes alone without LPS (labeled as control). Mice were sacrificed at 6, 12, or 24 h after LPS and lungs were perfused in situ for 15 min with saline solution containing the fluorophore difluorofluoroscein diacetate (DFF-DA). Lungs then were homogenized and assayed for: FIG. 9A: aiPLA2 activity; FIG. 9B: fluorescence of the lung homogenate as an index of ROS production. Results are mean±SE for N=3 for A and N=4 for B. *P<0.05 vs. Control and +PIP-2 at the same time point; ΔP<0.05 vs. corresponding value at 6 h.
To determine lung ROS production after LPS treatment, intact mice were treated with LPS (5 μg/g)±PIP-2 (2 μg/g). Mice were anesthesized at 6, 12, or 24 h after treatment with LPS and lungs in situ were cleared of blood and then perfused for […] with saline solution containing the fluorophore DFF-DA that is hydrolyzed intracellularly to DFF. Lungs were then homogenized, and fluorescence of the homogenate was measured at Ex 495 nm, Em 525 nm. Lung fluorescence was expressed as AFU per minute of perfusion with normalization to the mouse body wt.

Assay [2] relates to mechanically ventilated mice. Description: Ventilation-induced lung injury (VILI). The format is in vivo, mouse. The note with it: PIP-2 2 ug/g in liposomes IT at start of 6 h mechanical ventilation. The procedure: FIG. 13: Effect of PIP-2 on ventilation-induced lung injury (VILI). Anesthetized mice were mechanically ventilated for 6 h with tidal volume 12 ml/Kg body weight with a respiratory rate 120/min, and 2 cm H2O positive end-expiratory pressure (PEEP). […] Control represents values for normal (non-ventilated) lungs. % Protection was calculated as in Table 1. Results are mean±SE for n=4. *P<0.05 for VILI+PIP vs VILI.

The target in assay [3] is T1, aiPLA2 activity of Prdx6 (Mus musculus, UniProt O08709).
T1 construct: from tissue; host or cells: mouse lung homogenate (wild type mice)
T1 sequence (O08709 1-224): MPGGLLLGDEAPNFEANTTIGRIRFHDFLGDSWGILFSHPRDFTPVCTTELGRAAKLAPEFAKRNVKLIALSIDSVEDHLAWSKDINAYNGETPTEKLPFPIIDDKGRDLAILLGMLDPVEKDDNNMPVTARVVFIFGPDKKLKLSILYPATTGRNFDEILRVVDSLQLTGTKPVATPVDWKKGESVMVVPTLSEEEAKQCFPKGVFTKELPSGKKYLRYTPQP
As to the kind of experiment: Lung aiPLA2 activity after IT LPS. It is filed as in vivo. Conditions: PIP-2 with IT LPS 5 μg/g; 6, 12 and 24 h. The procedure: FIGS. 4A and 4B: Phospholipase A2 of Prdx6 (aiPLA2) was measured by the liberation of palmitic acid from dipalmitoylphosphatidylcholine under acidic conditions (pH 4) in the absence of Ca^2+. FIG. 4A: The effect of increasing concentration of PIP-2 on the aiPLA2 activity of recombinant human Prdx6. FIG. 4B: The effect of LPS and PIP-2 treatment on aiPLA2 activity of mouse lungs. Mice (n=3 for each condition) were treated with intratracheal LPS (2 μg/g body wt) without or with PIP-2 (2 μg/g body weight) in liposomes. Animals were sacrificed at 6,12, or 24 h after receiving LPS. Lungs were cleared of blood and homogenized.
as §1, with “Results are mean±SE for N=3 for A and N=4 for B. *P<0.05 vs. Control and +PIP-2 at the same time point; ΔP<0.05 vs. corresponding value at 6 h.” left out

Assay [4] deals with C57Bl/6 mice, LPS-mediated lung injury. Description: Acute lung injury after intratracheal LPS (5 μg/g), lungs evaluated at 24 h. It is filed as in vivo, mouse. The note with it: LPS 5 μg/g IT, sacrifice at 24 hrs.

In the case of LHDFRHQIL (Inhibitory peptide.) [PIP-2], the “ROS-generated fluorescence of lung after LPS” value in assay [1] is recorded as “dramatic decrease”. The “effect on ventilation-induced lung injury” value in assay [2] was “protected against lung injury”. The “aiPLA2 activity of lung after LPS” value in assay [3] is “dramatic decrease”.

Turning to LYEIKHQIL (Inhibitory peptide.) [PIP-4], the protein in assay [4] (PIP-4 2 μg/g IT @0 hrs, LPS alone 166) amounted to 77 ± 3 μg protein/g wt. For the same sequence, the TBARS is given as 78 ± 4 pmol/mg prot in assay [4] (PIP-4 2 μg/g IT @0 hrs, LPS alone 374) and 84 ± 2 pmol/mg prot in assay [4] (PIP-4 2 μg/g IV @12 hr). In assay [4] (PIP-4 2 μg/g IV @12 hr), the “Wet/Dry lung weight ratio” value worked out at 5.94 ± 0.05.
